# Read-outs that look alike come from different tables or passages of the source.
# Experiments:
# [1] = for logp [b]: pH 2.7; for logp [c]: pH 7.8; for logp [a]: pH 2.3
# physchem = settings: pH 2.3
# [2] = logP determination by HPLC on reversed-phase columns (EEC directive 79/831 Annex V.A8); settings: for logp [a] / logp [b]: acidic range; for logp [a]: pH 2.3, 0.1% aqueous phosphoric acid and acetonitrile; for logp [b] / logp [c]: LC-MS; for logp [b]: pH 2.7, 0.1% aqueous formic acid and acetonitrile; for logp [c]: neutral range, pH 7.8, 0.001 molar aqueous ammonium bicarbonate and acetonitrile
# [3] = test system: Production of Fumonisin FB1 by Fusarium Proliferatum; assay: Production of fumonisin FB1 by Fusarium proliferatum; type: cell-based; settings: FB1 concentration by HPLC-MS/MS after 6 days at 20° C.
# Fusarium proliferatum = assay: Growth of Fusarium proliferatum (OD620) in the fumonisin test; type: cell-based; settings: OD620 at the beginning and after 6 days
# Gibberella zeae = settings: in vivo
SMILES,logp [b] [1],logp [c] [1],further results
CSc1ccc(Nc2ncc(Cl)c(NC3CC3)n2)s1 [Example 34],2.84[b],3.36[c];,
C=CCN(C)C(=O)c1cc(Nc2ncc(Cl)c(NC3CC3)n2)cs1 [Example 22],1.89[b],2.65[c];,
"Clc1cnc(Nc2ccsc2)nc1Cl [Example X-1, 4,5-Dichloro-N-(3-thienyl)pyrimidin-2-amine]",,,chromatographic logP (physchem): 3.55
COCC(C)NC(=O)c1cc(Nc2ncc(Cl)c(NC3CC3)n2)cs1 (stereo not shown) [Example 24],1.58[b],2.22 [c];,
S=C(c1cc(Nc2ncc(Cl)c(NC3CC3)n2)cs1)N1CCCC1 [Example 39],2.31[b],3.23[c];,
CCN(CC)C(=S)c1cc(Nc2ncc(Cl)c(NC3CC3)n2)cs1 [Example 40],2.55[b],3.51[c];,
CC(=O)c1ccc(N)s1 [1-(5-Amino-2-thienyl)ethanone],,,chromatographic logP (physchem): 0.42
CC(C)N(C)C(=O)c1cc(Nc2ncc(Cl)c(NC3CC3)n2)cs1 [Example 8],,,logp [a] [1]: 1.6[a]
CSc1ccc(Nc2ncc(Br)c(NC3CC3)n2)s1 [Example 35],3.02[b],3.53[c];,
"O=C(c1cc(Nc2ncc(Cl)c(NC3CC3)n2)cs1)N1CCCC1 [Example 6, 5-Chloro-N^4-cyclopropyl-N^2-2-pyrrolidin-1-ylcarbonylthiophen-4-yl-2,4-diamine]",,,logp [a] [2]: 1.42[a]; logP (pH 2.3) [2]: 1.40; pI50 Fum [3]: 5.9; pI50 growth (Fusarium proliferatum): 5.6
CC(C)Nc1nc(Nc2ccsc2)ncc1Cl [Example 27],1.66[b],3.28[c];,
CCN(CC)C(=O)c1cc(Nc2ncc(Cl)c(NC3CC3)n2)cs1 [Example 9],,,pI50 Fum [3]: 6.0; logp [a] [1]: 1.62[a]; pI50 growth (Fusarium proliferatum): 5.5
Clc1cnc(Nc2ccsc2)nc1NC1CC1 [Example 1],1.63[b],,
"COC(=O)c1cc(Nc2ncc(Cl)c(NC3CC3)n2)cs1 [Example 5, 5-Chloro-N^4-cyclopropyl-N^2-2-methoxycarbonylthiophen-4-yl-2,4-diamine]",,,logp [a] [2]: 1.68[a]; logP (pH 2.3) [2]: 1.68; pI50 Fum [3]: 5.3; pI50 growth (Fusarium proliferatum): 4.4
"O=C(O)c1cc(Nc2ncc(Cl)c(NC3CC3)n2)cs1 [Example 37, 5-Chloro-N^4-cyclopropyl-N^2-2-hydroxycarbonylthiophen-4-yl-2,4-diamine]",,,logp [b] [2]: 1.30[b]; logp [c] [2]: 0.74[c];; logP (pH 2.3) [2]: 1.30
CC(C)(C)NC(=O)c1cc(Nc2ncc(Cl)c(NC3CC3)n2)cs1 [Example 20],2.11[b],,
FC(F)(F)CNc1nc(Nc2ccsc2)ncc1Br [Example 29],,3.50[c],
FC(F)CNc1nc(Nc2ccsc2)ncc1Cl [Example 31],1.88[b],2.72[c];,
O=C(c1cc(Nc2ncc(Cl)c(NC3CC3)n2)cs1)N1CCCCC1 [Example 7],,,logp [a] [1]: 1.68[a]
Cc1ccc(Nc2ncc(C(F)(F)F)c(NC3CC3)n2)s1 [Example 36],3.22[b],3.56[c];,
CC(=O)c1cc(Nc2ncc(Cl)c(NC3CC3)n2)cs1 [Example 13],,,logp [a] [1]: 1.44[a]
"Cc1ccc(Nc2ncc(Cl)c(NC3CC3)n2)s1 [Example 26, 5-Chloro-N^4-cyclopropyl-N^2-2-methylthiophen-5-yl-2,4-diamine]",,,logp [b] [2]: 2.09[b]; logp [c] [2]: 3.20[c];; logP (pH 2.3) [2]: 2.09

SMILES,logp [b] [1],logp [c] [1],further results
O=C(c1cc(Nc2ncc(Cl)c(NC3CC3)n2)cs1)N1CCOCC1 [Example 19],1.45[b],2.09[c];,
"O=c1[nH]c(Nc2ccsc2)ncc1Cl [IX-1, 2-(Thiophen-3-ylamino)-5-chloropyrimidin-4(3H)-one]",,,chromatographic logP (physchem): 1.38
FC(F)CNc1nc(Nc2ccsc2)ncc1Br [Example 30],1.99[b],2.83[c];,
COCCNC(=O)c1cc(Nc2ncc(Cl)c(NC3CC3)n2)cs1 [Example 23],1.38[b],2.01[c];,
FC(F)(F)c1cnc(Nc2ccsc2)nc1NC1CC1 [Example 2],2.69[b],,efficacy (Gibberella zeae): ≥ 80%
Clc1cc(Nc2ncc(Cl)c(NC3CC3)n2)cs1 [Example 41],2.63[b],,
CC(C)Nc1nc(Nc2ccsc2)ncc1Br [Example 28],1.85[b],3.43[c];,
CN(CC1CC1)C(=O)c1cc(Nc2ncc(Cl)c(NC3CC3)n2)cs1 [Example 38],2.08[b],2.86[c];,
N#Cc1csc(Nc2ncc(Cl)c(NC3CC3)n2)c1 [Example 12],,,logp [a] [1]: 2.55[a]
O=C(NO)c1cc(Nc2ncc(Cl)c(NC3CC3)n2)cs1 [Example 25],2.1[b],2.96[c];,
N#Cc1cc(Nc2ncc(Cl)c(NC3CC3)n2)cs1 [Example 14],,,logp [a] [1]: 2.23[a]
Clc1cnc(Nc2ccsc2)nc1NCC1CC1 [Example 32],2.33[b],3.31[c];,
CC1CC1Nc1nc(Nc2ccsc2)ncc1Cl (mixture of isomers) [Example 17],,,logp [a] [1]: 1.97[a]
CS(=O)(=O)c1ccc(Nc2ncc(Cl)c(NC3CC3)n2)s1 [Example 33],1.97[b],2.02[c];,
"CC(=O)c1ccc(Nc2ncc(Cl)c(NC3CC3)n2)s1 [Example 10, N^4-Cyclopropyl-N^2-2-acetylthiophen-5-yl-5-(chloro)pyrimidine-2,4-diamine]",,,chromatographic logP (physchem): 1.87
Cc1ccc(NC(=O)OC(C)(C)C)s1 [2-(N-tert-Butoxycarbonylamino)-5-methylthiophene],,,chromatographic logP (physchem): 2.89
Clc1ccc(Nc2ncc(Cl)c(NC3CC3)n2)s1 [Example 43],,3.54[c];,
Clc1cnc(Nc2ccsc2)nc1NC1CCC1 [Example 18],1.96[b],3.46[c];,
C=CCNC(=O)c1cc(Nc2ncc(Cl)c(NC3CC3)n2)cs1 [Example 21],,2.28[c],
Brc1cnc(Nc2ccsc2)nc1NC1CCC1 [Example 3],2.12[b],,
Cc1ccc(Nc2ncc(Br)c(NC3CC3)n2)s1 [Example 44],2.27[b],3.35[c];,
Brc1cnc(Nc2ccsc2)nc1NC1CC1 [Example 4],1.71[b],,
